Experiments:
TlpB [1] = target: TlpB (Helicobacter pylori, UniProt B6JPK4, Y137F); experiment: colorimetric assay of co-purified urea; type: binding
TlpB [2] = target: TlpB (Helicobacter pylori, UniProt B6JPK4); experiment: crystal structure; type: binding
[3] = target: TlpB periplasmic domain, residues 33-211 (TlpBpp), H. pylori strain SS1 (Helicobacter pylori strain SS1); experiment: crystal structure

Compound: NC(N)=O [urea]
- % bound urea (TlpB [1]): 11 % bound urea

Compound: CC(N)=O [acetamide]
- crystal structure (1.40 Å); CD thermal melt (TlpB [2]): TlpBpp with acetamide bound is 3UB7

Compound: TlpB periplasmic domain, residues 33-211 (TlpBpp), H. pylori strain SS1 (domain or fragment)
- stoichiometry N [3]: 2

Source: paper PMC3392440 (2012)
